Experimental data as given in ChEMBL document CHEMBL1134821, “Synthesis and anti-HIV activity of oleanolic acid derivatives” (Bioorg Med Chem Lett, 2001).
Converted amounts (≈) assume the structure as drawn.

Tests used:
H9 [1] = assay: Antiviral activity against HIV-1(IIIB) infected H9 cell lines.; assay type: functional, cell-based; settings: Homo sapiens
[2] = Therapeutic index was determined; settings: for selectivity ratio: read-out: TI
H9 [3] = assay: Concentration which was toxic to 50% of the mock-infected H9 lymphocyte.; assay type: functional, cell-based; settings: Homo sapiens

| Compound | EC50 (H9 [1]) | selectivity ratio [2] | IC50 (H9 [3]) | TI [2] |
| --- | --- | --- | --- | --- |
| CC1(C)CC[C@]2(C(=O)O)CC[C@]3(C)[C@H](CC[C@@H]4[C@@]5(C)CC[C@H](OC(=O)CCCC(=O)O)C(C)(C)[C@@H]5CC[C@]43C)[C@@H]2C1 | 2.6 µg/mL (≈ 4.54 µM) | 4.9 | 12.9 µg/mL (≈ 22.5 µM) | – |
| CC1(C)CC[C@]2(C(=O)O)CC[C@]3(C)[C@H](CC[C@@H]4[C@@]5(C)CC[C@H](OC(=O)CC(C)(C)C(=O)O)C(C)(C)[C@@H]5CC[C@]43C)[C@@H]2C1 | 0.0039 µg/mL (≈ 0.00665 µM) | 3570 | 13.7 µg/mL (≈ 23.3 µM) | – |
| CC(C)(CC(=O)O)CC(=O)NC[C@]12CCC(C)(C)C[C@H]1C1=CC[C@@H]3[C@@]4(C)CC[C@H](OC(=O)CC(C)(C)CC(=O)O)C(C)(C)[C@@H]4CC[C@@]3(C)[C@]1(C)CC2 | 0.1 µg/mL (≈ 0.138 µM) | 212 | 21.2 µg/mL (≈ 29.2 µM) | – |
| CC(CC(=O)O)CC(=O)O[C@H]1CC[C@]2(C)[C@H]3CC[C@@H]4[C@@H]5CC(C)(C)CC[C@]5(C(=O)O)CC[C@@]4(C)[C@]3(C)CC[C@H]2C1(C)C (stereo partly specified) | 0.1 µg/mL (≈ 0.17 µM) | 123 | 12.3 µg/mL (≈ 21 µM) | – |
| CC(C)(CC(=O)O)CC(=O)O[C@H]1CC[C@]2(C)[C@H]3CC[C@@H]4[C@@H]5CC(C)(C)CC[C@]5(C(=O)O)CC[C@@]4(C)[C@]3(C)CC[C@H]2C1(C)C | 0.1 µg/mL (≈ 0.166 µM) | 83 | 8.3 µg/mL (≈ 13.8 µM) | – |
| CC1(C)CC[C@]2(C(=O)O)CC[C@]3(C)[C@H](CC[C@@H]4[C@@]5(C)CC[C@H](O)C(C)(C)[C@@H]5CC[C@]43C)[C@@H]2C1 | 0.5 µg/mL (≈ 1.09 µM) | 34.8 | 17.4 µg/mL (≈ 37.9 µM) | – |
| CC1(C)CC[C@]2(C(=O)O)CC[C@]3(C)[C@H](CC[C@@H]4[C@@]5(C)CC[C@H](OC(=O)CC6(CC(=O)O)CCCC6)C(C)(C)[C@@H]5CC[C@]43C)[C@@H]2C1 | 0.1 µg/mL (≈ 0.16 µM) | 101 | 10.1 µg/mL (≈ 16.1 µM) | – |
| CC1(C)CC[C@]2(CNC(=O)CC3(CC(=O)O)CCCC3)CC[C@]3(C)C(=CC[C@@H]4[C@@]5(C)CC[C@H](OC(=O)CC6(CC(=O)O)CCCC6)C(C)(C)[C@@H]5CC[C@]43C)[C@@H]2C1 | 0.1 µg/mL (≈ 0.129 µM) | 195 | 19.5 µg/mL (≈ 25.1 µM) | – |
| CC1(C)CC[C@]2(C(=O)O)CC[C@]3(C)C(=CC[C@@H]4[C@@]5(C)CC[C@H](O)C(C)(C)[C@@H]5CC[C@]43C)[C@@H]2C1 [OLEANOLIC_ACID] | 1.7 µg/mL (≈ 3.72 µM) | – | 21.8 µg/mL (≈ 47.7 µM) | 12.8 |

Further lines, with some results ahead:

| EC50 (H9 [1]) | Compound | selectivity ratio [2] | IC50 (H9 [3]) | TI [2] |
| --- | --- | --- | --- | --- |
| 8.3 µg/mL (≈ 14.2 µM) | CC(CC(=O)O)CC(=O)O[C@H]1CC[C@]2(C)[C@H]3CC=C4[C@@H]5CC(C)(C)CC[C@]5(C(=O)O)CC[C@@]4(C)[C@]3(C)CC[C@H]2C1(C)C (stereo partly specified) | 3.3 | 27.5 µg/mL (≈ 47 µM) | – |
| 1.5 µg/mL (≈ 2.5 µM) | CC(C)(CC(=O)O)CC(=O)O[C@H]1CC[C@]2(C)[C@H]3CC=C4[C@@H]5CC(C)(C)CC[C@]5(C(=O)O)CC[C@@]4(C)[C@]3(C)CC[C@H]2C1(C)C | – | 14.2 µg/mL (≈ 23.7 µM) | – |
| 7.1 µg/mL (≈ 12.4 µM) | CC1(C)CC[C@]2(C(=O)O)CC[C@]3(C)C(=CC[C@@H]4[C@@]5(C)CC[C@H](OC(=O)CCCC(=O)O)C(C)(C)[C@@H]5CC[C@]43C)[C@@H]2C1 | – | 14.6 µg/mL (≈ 25.6 µM) | – |
| 1.2 µg/mL (≈ 1.92 µM) | CC1(C)CC[C@]2(C(=O)O)CC[C@]3(C)C(=CC[C@@H]4[C@@]5(C)CC[C@H](OC(=O)CC6(CC(=O)O)CCCC6)C(C)(C)[C@@H]5CC[C@]43C)[C@@H]2C1 | – | 4.7 µg/mL (≈ 7.52 µM) | – |
